Data taken from patent US8415339B2, “Bactericidal anti-MRSA active pharmaceutical composition containing carbapenems” (priority 2007, dated 2013).
Where “and” joins values, the source holds several entries; their conditions need not be identical. Identical values can stand only once.

Columns and labels:
MRSA 7268/02 [1] = test: Agar diffusion (plate/disk) test, inhibition zone; format: cell-based, Staph. aureus; details: 20 hrs at 37° C.; for zone of inhibition at 10 µg/disc: Staphylococcus aureus, MRSA, 20 h, read-out: Diameter of inhibition zone
Experimental: (§1) Inhibition zone diameters were determined on Difco Nutrient Agar (10 ml) in sterile dishes (8.5 cm) using ca. 10^6-10^7 colony forming units. 0.2 ml of a bacterial suspension (overnight culture in Difco Nutrient Broth) was mixed at 52° C. with the sterile liquid agar. It solidified at room temperature. Sterile filter disks (6 mm) were placed on the agar surface. Appropriate volumes of a 0.2% aqueous solutions of antibiotics were transferred to the disks by a precision syringe. Alternatively, commercial impregnated disks (Oxoid) were used.
(§2) The inhibition zone diameter was measured after 20 hrs at 37° C. For determination of bactericidal activity, incubation at 37° C. was continued for additional 40 hrs. A clear inhibition zone after additional incubation indicated bactericidity (B).

Staph. Innsbruck [2] = test: Agar diffusion (plate/disk) test, inhibition zone; format: cell-based, Staph. aureus; details: 20 hrs at 37° C.; for zone of inhibition at 10 µg/disc: Staphylococcus aureus, 20 h, read-out: Diameter of inhibition zone
Experimental: as §1, §2

MRSA 7268/02 [3] = test: Minimal inhibitory concentration, agar dilution; format: cell-based, Staph. aureus; details: Difco Nutrient Agar, 20 hrs at 37° C., combinations as a + b; for MIC: Staphylococcus aureus, MRSA
Experimental: (§3) Minimal inhibitory concentrations were determined using Difco Nutrient Agar. Appropriate volumes of 0.1% aqueous solutions of antibiotics were added into sterile dishes (8.5 cm) in twofold dilutions and mixed with 10 ml of sterile liquid agar of 50° C. The solid agar was inoculated with 3 μl of an 0.5 McFarland bacterial solution in Difco Nutrient Broth, corresponding to approx. 10^5 colony forming units. Bacterial growth was recorded after 20 hrs of incubation at 37° C.

Staph. Innsbruck [4] = test: Minimal inhibitory concentration, agar dilution; format: cell-based, Staph. aureus; details: Difco Nutrient Agar, 20 hrs at 37° C., combinations as a + b; for MIC: Staphylococcus aureus
Experimental: as §3

MRSA 7268/02 [5] = test: Time dependent counting of colony forming units (cfu); format: cell-based, Staph. aureus
MRSA München 12797 = test: Mouse septicaemia test; format: in vivo; details: s. c., at 1 hr and 4 hr after i.v. infection, observed 10 days
Experimental: In vivo activity was determined by a mouse septicaemia test using immunocompetent animals of 30 g weight (6 animals per group). Infection was performed with MRSA München 12797 at a concentration of approx. 2×10^9 cfu/mouse by the i.v. route (lethal dose). Therapy was performed at daily doses from 5+5 to 75+75 mg/kg by s. c. route (equivalent amounts at time 1 hr and 4 hr after infection).

[6] = single antibiotic 30 μg per disk
[7] = carbapenem alone 10 μg per disk

Structure (SMILES)	Diameter of inhibition zone (MRSA 7268/02 [1]; [6])	Diameter of inhibition zone (Staph. Innsbruck [2]; [6])	further results
CO/N=C(\C(=O)N[C@@H]1C(=O)N2C(C(=O)O)=C(CSc3nc(=O)c(=O)[nH]n3C)CS[C@H]12)c1csc(N)n1 [Ceftriaxon]	0 mm	0 mm	–
C=CC1=C(C(=O)O)N2C(=O)[C@@H](NC(=O)/C(=N\OCC(=O)O)c3csc(N)n3)[C@H]2SC1 [Cefixim]	–	0 mm	–
CO/N=C(\C(=O)N[C@@H]1C(=O)N2C(C(=O)O)=C(COC(N)=O)CS[C@H]12)c1ccco1 [Cefuroxim]	0 mm	–	–
CC1(C)S[C@@H]2[C@H](NC(=O)[C@H](N)c3ccccc3)C(=O)N2[C@H]1C(=O)O [Ampicillin]	12 mm	12 mm	–
CN(C)CCn1nnnc1SCC1=C(C(=O)O)N2C(=O)[C@@H](NC(=O)Cc3csc(N)n3)[C@H]2SC1 [Cefotiam]	–	0 mm	–
CCN1CCN(C(=O)N[C@@H](C(=O)N[C@@H]2C(=O)N3[C@@H]2SC(C)(C)[C@@H]3C(=O)O)c2ccccc2)C(=O)C1=O [Piperacillin]	0 mm	0 mm	–
CC1(C)S[C@@H]2[C@H](NC(=O)[C@H](N)c3ccc(O)cc3)C(=O)N2[C@H]1C(=O)O [Amoxicillin]	0 mm	10 mm	MIC (MRSA 7268/02 [3]): 32 µg/mL; MIC (Staph. Innsbruck [4]): 64 µg/mL
C[C@@H](O)[C@H]1C(=O)N2C(C(=O)O)=C(S[C@@H]3CN[C@H](C(=O)Nc4cccc(C(=O)O)c4)C3)[C@H](C)[C@H]12 [Ertapenem]	–	–	zone of inhibition at 10 µg/disc (MRSA 7268/02 [1]; [7]): 0 mm; zone of inhibition at 10 µg/disc (Staph. Innsbruck [2]; [7]): 0 mm
NC(=O)c1cc[n+](CC2=C(C(=O)[O-])N3C(=O)[C@@H](NC(=O)[C@@H](c4ccccc4)S(=O)(=O)O)[C@H]3SC2)cc1 [Cefsudolin]	0 mm	0 mm	–
C[C@@H](O)[C@H]1C(=O)N2C(C(=O)O)=C(SCOCCN)[C@H](C)[C@H]12 [GH 570, (1R,5S,6S)-2-[(2-Aminoethyl)oxy]metlhylthio-6-[(R)-1-hydroxyethyl]-1-methylcarbapen-2-em-3-carboxylic acid]	–	–	Diameter of inhibition zone (MRSA 7268/02 [1]; [7]): 0 mm; Diameter of inhibition zone (Staph. Innsbruck [2]; [7]): 0 mm
Cc1nnc(SCC2=C(C(=O)O)N3C(=O)[C@@H](NC(=O)Cn4cnnn4)[C@H]3SC2)s1 [Cefazolin]	0 mm	0 mm	–
CC(=O)NC[C@H]1CN(c2ccc(N3CCOCC3)c(F)c2)C(=O)O1 [linezolide]	–	–	Reduction of cfu's, substance used alone (MRSA 7268/02 [5]): Neither epicillin, nor linezolide showed any significant reduction of cfu's
CO[C@@]1(NC(=O)C(C(=O)O)c2ccc(O)cc2)C(=O)N2C(C(=O)O)=C(CSc3nnnn3C)CO[C@@H]21 (stereo partly shown) [Moxalactam]	–	8 mm	–
N[C@@H](C(=O)N[C@@H]1C(=O)N2C(C(=O)O)=C(Cl)CS[C@H]12)c1ccccc1 [Cefaclor]	11 mm	–	–
Cc1onc(-c2ccccc2Cl)c1C(=O)N[C@@H]1C(=O)N2[C@@H]1SC(C)(C)[C@@H]2C(=O)O [Cloxacillin]	0 mm	0 mm	–
Cc1onc(-c2c(Cl)cccc2Cl)c1C(=O)N[C@@H]1C(=O)N2[C@@H]1SC(C)(C)[C@@H]2C(=O)O [Dicloxacillin]	0 mm	0 mm	–
COc1cccc(OC)c1C(=O)N[C@@H]1C(=O)N2[C@@H]1SC(C)(C)[C@@H]2C(=O)O [Methicillin]	–	0 mm	–
CC1(C)S[C@@H]2[C@H](NC(=O)[C@H](N)C3=CCC=CC3)C(=O)N2[C@H]1C(=O)O [Epicillin]	14 mm and 12 mm	10 mm and 14 mm and 12 mm	Minimal Inhibitory concentration (MRSA 7268/02 [3]): 32 µg/mL; Minimal Inhibitory concentration (Staph. Innsbruck [4]): 32 µg/mL; Reduction of cfu's, substance used alone (MRSA 7268/02 [5]): Neither epicillin, nor linezolide showed any significant reduction of cfu's
CC(=O)NCSC1=C(C(=O)[O-])N2C(=O)[C@H]([C@@H](C)O)[C@H]2[C@H]1C.[K+] [GH 519, Potassium (1R,5S,6S)-2-[(N-acetylamino)methylthio]-6-[(R)-1-hydroxyethyl]-1-methyl-carbapenen-2-em-3-carboxylate]	–	–	Diameter of inhibition zone (MRSA 7268/02 [1]; [7]): 0 mm; Diameter of inhibition zone (Staph. Innsbruck [2]; [7]): 0 mm
C[C@@H](O)[C@H]1C(=O)N2C(C(=O)O)=C(S[C@@H]3CN[C@H](C(=O)N(C)C)C3)[C@H](C)[C@H]12 [Meropenem]	–	–	zone of inhibition at 10 µg/disc (MRSA 7268/02 [1]; [7]): 13 mm; zone of inhibition at 10 µg/disc (Staph. Innsbruck [2]; [7]): 14 mm; MIC (MRSA 7268/02 [3]): 16 µg/mL; MIC (Staph. Innsbruck [4]): 32 µg/mL; Bactericidal effect compared with epicillin/meropenem 2+2 μg/ml (MRSA 7268/02 [5]; 4 μg/ml alone): less bactericidal than the epicillin/meropenem composition at 2+2 μg/ml; ED90 (MRSA München 12797): > 75+75 mg/kg
Cc1onc(-c2ccccc2)c1C(=O)N[C@@H]1C(=O)N2[C@@H]1SC(C)(C)[C@@H]2C(=O)O [Oxacillin]	0 mm	0 mm	–
CO[C@@]1(NC(=O)Cc2cccs2)C(=O)N2C(C(=O)O)=C(COC(N)=O)CS[C@@H]21 [Cefoxitin]	0 mm	11 mm	MIC (Staph. Innsbruck [4]): 32 µg/mL
C[C@@H](O)[C@H]1C(=O)N2C(C(=O)O)=C(SCCN=CN)C[C@H]12 [Imipenem]	–	–	zone of inhibition at 10 µg/disc (MRSA 7268/02 [1]; [7]): 8 mm; zone of inhibition at 10 µg/disc (Staph. Innsbruck [2]; [7]): 8 mm
CC1(C)S[C@@H]2[C@H](NC(=O)C(C(=O)O)c3ccccc3)C(=O)N2[C@H]1C(=O)O (stereo partly shown) [Carbenicillin]	0 mm	–	–
CCN1CCN(C(=O)N[C@@H](C(=O)N[C@@H]2C(=O)N3C(C(=O)O)=C(CSc4nnnn4C)CS[C@H]23)c2ccc(O)cc2)C(=O)C1=O [Cefoperazone]	9 mm	–	–
CO/N=C(\C(=O)N[C@@H]1C(=O)N2C(C(=O)O)=C(COC(C)=O)CS[C@H]12)c1csc(N)n1 [Cefotaxime]	0 mm	0 mm	–
C=CC1=C(C(=O)O)N2C(=O)[C@@H](NC(=O)/C(=N\O)c3csc(N)n3)[C@H]2SC1 [Cefdinir]	0 mm	–	–
CN[C@H](CC(C)C)C(=O)N[C@H]1C(=O)N[C@@H](CC(N)=O)C(=O)N[C@H]2C(=O)N[C@H]3C(=O)N[C@H](C(=O)N[C@H](C(=O)O)c4cc(O)cc(O)c4-c4cc3ccc4O)[C@H](O)c3ccc(c(Cl)c3)Oc3cc2cc(c3O[C@@H]2O[C@H](CO)[C@@H](O)[C@H](O)[C@H]2O[C@H]2C[C@](C)(N)[C@H](O)[C@H](C)O2)Oc2ccc(cc2Cl)[C@H]1O [Vancomycin]	19 mm	20 mm	–
CC(=O)OCC1=C(C(=O)O)N2C(=O)[C@@H](NC(=O)Cc3cccs3)[C@H]2SC1 [Cephalothin]	0 mm	–	–
COCSC1=C(C(=O)[O-])N2C(=O)[C@H]([C@@H](C)O)[C@H]2[C@H]1C.[K+] [GH 478, Potassium (1R,5S,6S)-6-[(R)-1-hydroxyethyl]-2-methoxymethylthio-1-methylcarbapen-2-em-3-carboxylate]	–	–	Diameter of inhibition zone (Staph. Innsbruck [2]; [7]): 0 mm
